# Laboratory results as given in patent US7572799B2, “Pyrazolo[4,3-d]pyrimidines as Phosphodiesterase Inhibitors” (Pfizer Inc, priority 2003, dated 2009).
# Where two headings read alike, the source gives them in different places.
# Target: PDE-5 (UniProt O76074)
# Assay: In vitro PDE inhibitory activity against PDE5 (batch method or scintillation proximity assay)
# Type: biochemical, human
# Details: representative compounds
# Description: The compounds of the invention are inhibitors of cyclic guanylate monophosphate (cGMP)-specific phosphodiesterase type 5 (PDE-5 inhibitors).
# The required PDE enzymes can be isolated from a variety of sources, including human corpus cavernosum, human and rabbit platelets, human cardiac ventricle, human skeletal muscle and bovine retina, essentially by a modification of the method of Thompson, W J et al.; Biochemistry 18(23), 5228-5237, 1979, as described by Ballard S A et al.; J. Urology 159(6), 2164-2171, 1998. In particular, cGMP-specific PDE5 and cGMP-inhibited cAMP PDE3 can be obtained from human corpus cavernosum tissue, human platelets or rabbit platelets; cGMP-stimulated PDE2 was obtained from human corpus cavernosum; calcium/calmodulin (Ca/CAM)-dependent PDE1 from human cardiac ventricle; cAMP-specific PDE4 from human skeletal muscle; and photoreceptor PDE6 from bovine retina. Phosphodiesterases 7-11 can be generated from full length human recombinant clones transfected into SF9 cells.
# Assays can be performed either using a modification of the “batch”method of Thompson W J and Appleman M M; Biochemistry 10(2), 311-316, 1971, essentially as described by Ballard S A et al.; J. Urology 159(6), 2164-2171, 1998, or using a scintillation proximity assay for the direct detection of [^3H]-labelled AMP/GMP using a modification of the protocol described by Amersham plc under product code TRKQ7090/7100. In summary, for the scintillation proximity assay the effect of PDE inhibitors was investigated by assaying a fixed amount of enzyme in the presence of varying inhibitor concentrations and low substrate, (cGMP or cAMP in a 3:1 ratio unlabelled to [^3H]-labeled at a concentration of ˜⅓ Km, or less) such that IC50≅Ki. The final assay volume was made up to 100 μl with assay buffer [20 mM Tris-HCl pH 7.4, 5 mM MgCl2, 1 mg/ml bovine serum albumin]. Reactions were initiated with enzyme, incubated for 30-60 min at 30° C. to give <30% substrate turnover and terminated with 50 μl yttrium silicate SPA beads (containing 3 mM of the respective unlabelled cyclic nucleotide for PDEs 9 and 11).
Structure (SMILES),IC50 (read-out: IC50) [nM],IC50 [nM]
"Cc1ccnc(Nc2nc(N(C)C(C)C)nc3c(C(=O)O)nn(CCOC(C)C)c23)c1 [Example 111, 1-(2-Isopropoxyethyl)-5-(N-isopropyl-N-methylamino)-7-(4-methylpyridin-2-ylamino)-1H-pyrazolo[4,3-d]pyrimidine-3-carboxylic acid]",0.502,–
CCOCCn1nc(C(=O)OC)c2nc(N(C)CC)nc(Nc3cc(C)ccn3)c21 [Example 2],0.201,–
"CCOCCn1nc(-c2nc(=O)o[nH]2)c2nc(N(C)C(C)C)nc(Nc3cc(C)ccn3)c21 [Example 75, 3-[1-(2-Ethoxyethyl)-5-(N-isopropyl-N-methylamino)-7-(4-methylpyridin-2-ylamino)-1H-pyrazolo[4,3-d]pyrimidin-3-yl]-2H-1,2,4-oxadiazol-5-one]",0.371,–
Cc1ccnc(Nc2nc(N(C)C(C)C)nc3c(C(=O)NS(C)(=O)=O)nn(CCOCC(F)F)c23)c1 [Example 181],1.29,–
CCN(C)c1nc(Nc2cc(C)ccn2)c2c(n1)c(C(=O)NS(C)(=O)=O)nn2CCOC [Example 162],3.1,–
CCOCCn1nc(C(=O)O)c2nc(N(C)C(C)C)nc(Nc3ccccn3)c21 [Example 105],0.741,–
"CCOCCn1nc(C(=O)O)c2nc(N3CCCC3)nc(Nc3cc(C)ccn3)c21 [Example 134, 1-(2-Ethoxyethyl)-7-[(4-methylpyridin-2-yl)amino]-5-pyrrolidin-1-yl-1H-pyrazolo[4,3-d]pyrimidine-3-carboxylic acid]",5.02,–
"CCOCCn1nc(C(=O)O)c2nc(N(C)CC)nc(Nc3cccc(C)c3)c21 [Example 118, 1-(2-Ethoxyethyl)-5-[ethyl(methyl)amino]-7-[(3-methylphenyl)amino]-1H-pyrazolo[4,3-d]pyrimidine-3-carboxylic acid]",1.72,–
CCOCCn1nc(C(=O)O)c2nc(N(C)C)nc(Nc3cc(C)c(C)cn3)c21 [Example 41],3.2,–
CCOCCn1nc(C(=O)O)c2nc(N(C)C)nc(Nc3ccc(C)cn3)c21 [Example 24],53.9,–
CCOCCn1nc(C(=O)O)c2nc(N(CC)CC)nc(Nc3cc(C)ccn3)c21 [Example 11],1.09,–
CCOCCn1nc(C(=O)O)c2nc(N(CC)CC)nc(Nc3ccc(F)c(C)c3)c21 [Example 86],0.063,–
CCOCCn1nc(C(=O)O)c2nc(N(C)C(C)C)nc(N[C@@H]3CCOC3)c21 [Example 67],–,100
CCOCCn1nc(C(=O)O)c2nc(N(C)CC)nc(Nc3ccc(C)c(C)c3)c21 [Example 103],21.4,–
"CO[C@H](C)Cn1nc(C(=O)O)c2nc(N(C)C(C)C)nc(Nc3cc(C)ccn3)c21 [Example 112, (2′R)-5-(N-Isopropyl-N-methylamino)-1-(2′-methoxypropyl)-7-(4-methylpyridin-2-ylamino)-1H-pyrazolo[4,3-d]pyrimidine-3-carboxylic acid]",14.7,–
CCOCCn1nc(C(=O)O)c2nc(N(C)CC)nc(Nc3ccc(F)c(C)c3)c21 [Example 87],0.087,–
CCOCCn1nc(C(=O)O)c2nc(N(C)C(C)C)nc(Nc3cccc(F)c3F)c21 [Example 93],23.2,–
CCOCCn1nc(C(=O)OC)c2nc(N3CCN[C@H](C)C3)nc(Nc3cc(C)ccn3)c21 [Example 3],5.01,–
CCOCCn1nc(C(=O)NS(C)(=O)=O)c2nc(N(C)CC)nc(Nc3cc(C)ncn3)c21 [Example 157],0.771,–
CCOCCn1nc(C(=O)O)c2nc(N(C)C(C)C)nc(Nc3cc(F)ccc3F)c21 [Example 92],41,–
CCN(C)c1nc(Nc2cc(C)ccn2)c2c(n1)c(C(=O)O)nn2CC1CCCCO1 (stereo not drawn) [Example 60],–,8.02
CCOCCn1nc(-c2nc(=O)o[nH]2)c2nc(N(CC)CC)nc(Nc3ccc(F)c(C)c3)c21 [Example 78],0.24,–
CCOCCn1nc(C(=O)O)c2nc(N[C@@H](C)CC)nc(Nc3cc(C)ccn3)c21 [Example 55],2.6,–

Structure (SMILES),IC50 (read-out: IC50) [nM],IC50 [nM]
CCN(C)c1nc(Nc2cc(C)ccn2)c2c(n1)c(C(=O)NS(C)(=O)=O)nn2CCOCCCF [Example 175],0.57,–
"Cc1ccnc(Nc2nc(N3CCCC3C)nc3c(C(=O)O)nn(CCOCC(F)(F)F)c23)c1 (stereo not drawn) [Example 129, 7-[(4-Methylpyridin-2-yl)amino]-5-(2-methylpyrrolidin-1-yl)-1-[2-(2,2,2-trifluoroethoxy)ethyl]-1H-pyrazolo[4,3-d]pyrimidine-3-carboxylic acid]",7.78,–
CCN(CC)c1nc(Nc2ccc(F)c(C)c2)c2c(n1)c(C(=O)O)nn2CCOCC(F)(F)F [Example 140],0.099,–
CCOCCn1nc(C(=O)O)c2nc(N(C)C(C)C)nc(Nc3cccc(OC)n3)c21 [Example 84],2.37,–
CCOCCn1nc(C(=O)O)c2nc(N(C)C)nc(NC3CCOCC3)c21 [Example 82],55.1,–
CCN(C)c1nc(Nc2cc(C)ccn2)c2c(n1)c(C(=O)O)nn2C[C@@H](C)OC [Example 65],25,–
CCOCCn1nc(C(=O)O)c2nc(N(C)C(C)C)nc(Nc3ccnc(C)n3)c21 [Example 72],59.2,–
Cc1ccnc(Nc2nc(N(C)C(C)C)nc3c(C(=O)NS(C)(=O)=O)nn(CCOCCCF)c23)c1 [Example 176],0.17,–
CCOCCn1nc(C(=O)O)c2nc(N(C)C(C)C)nc(NC3CC3)c21 [Example 34],–,100
CCOCCn1nc(C(=O)O)c2nc(N(C)CC)nc(Nc3ccnc(C)n3)c21 [Example 73],52.3,–
"Cc1ccnc(Nc2nc(N(C)C3CCC3)nc3c(C(=O)O)nn(CCOCC(F)(F)F)c23)c1 [Example 130, 5-[Cyclobutyl(methyl)amino]-7-[(4-methylpyridin-2-yl)amino]-1-[2-(2,2,2-trifluoroethoxy)ethyl]-1H-pyrazolo[4,3-d]pyrimidine-3-carboxylic acid]",19.5,–
"CCN(CC)c1nc(Nc2cc(C)ccn2)c2c(n1)c(C(=O)O)nn2CCOCC(F)(F)F [Example 128, 5-(Diethylamino)-7-[(4-methylpyridin-2-yl)amino]-1-[2-(2,2,2-trifluoroethoxy)ethyl]-1H-pyrazolo[4,3-d]pyrimidine-3-carboxylic acid]",3.94,–
"CCCOCCn1nc(C(=O)NS(C)(=O)=O)c2nc(N(C)C(C)C)nc(Nc3cc(C)ccn3)c21 [Example 184, 5-[Isopropyl(methyl)amino]-7-[(4-methylpyridin-2-yl)amino]-N-(methylsulfonyl)-1-(2-propoxyethyl)-1H-pyrazolo[4,3-d]pyrimidine-3-carboxamide]",0.5,–
CCN(CC)c1nc(Nc2cc(C)ccn2)c2c(n1)c(C(=O)NS(C)(=O)=O)nn2CCOCC(F)F [Example 182],1.4,–
CCCN(C)c1nc(Nc2cc(C)ccn2)c2c(n1)c(C(=O)O)nn2CCOCC [Example 15],1.84,–
CCOCCn1nc(C(=O)O)c2nc(N(C)CC)nc(Nc3cccc(CC)n3)c21 [Example 97],9.74,–
CCOCCn1nc(-c2nc(=O)o[nH]2)c2nc(N(C)CC)nc(Nc3ccc(F)c(C)c3)c21 [Example 77],0.162,–
CCN(C)c1nc(Nc2cc(C)ccn2)c2c(n1)c(C(=O)O)nn2CCOC [Example 119],11.5,–
CCOCCn1nc(C(=O)O)c2nc(N(C)C(C)C)nc(Nc3cnccn3)c21 [Example 29],106,–
CCOCCn1nc(C(=O)O)c2nc(N[C@H](C)CC)nc(Nc3cc(C)ccn3)c21 [Example 56],9.11,–
Cc1ccnc(Nc2nc(N(C)C)nc3c(C(=O)O)nn(CCOC(C)C)c23)c1 [Example 61],13.1,–
CCOCCn1nc(C(=O)O)c2nc(N(C)C)nc(Nc3cc(C)cc(C)n3)c21 [Example 27],36.8,–
